This note sets out measurements from US12435051B2, “Dual modulator of mGluR5 and 5-HT2A receptor, and use thereof” (Vivozon Inc., priority 2020, dated 2025).

One test addresses T1, human 5-HT2AR (Homo sapiens, UniProt P28223).
T1 construct: expressed in transfected cells; host or cells: HEK293
The test is described as follows: HTRF-based IP1 accumulation assay (5-HT2AR antagonistic effect). It counts as cell-based. As to conditions: HEK293 cells overexpressing human 5-HT2AR; serotonin at EC80. An outline of the steps:
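HEK293 cells stably overexpressing human 5-HT2AR were pre-incubated with compound (top 10 μM, serial dilutions, LiCl buffer) 10 min at room temperature, then stimulated with EC80 serotonin 30 min at 37 °C. IP1 accumulation was read by HTRF; IC50s came from activity normalized to serotonin and IP1 controls.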

The next test has as its target T2, mGluR5 (Homo sapiens, UniProt P41594).
T2 construct: expressed in transfected cells; host or cells: HEK293
The test is described as follows: Fluorescence-based Ca2+ mobilization assay. It is filed as cell-based. As to conditions: HEK293 cells overexpressing mGluR5; L-glutamate at EC80. The essentials:
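HEK293 cells stably overexpressing mGluR5, dye-loaded 60 min at 37 °C, then preincubated with compound 30 min at room temperature in the dark. Ca2+ response to L-glutamate at EC80 read on FLIPR for 2 min. Signal normalised to glutamate (100%) and vehicle (0%); IC50 from % inhibition.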

Test [1] has as its system physical (tactile) allodynia in spinal nerve ligation model. The test is described as follows: Analgesic efficacy experiment using animal model (Chung model, spinal nerve ligation). It counts as in vivo, Sprague-Dawley rats. As to conditions: for inhibition in vivo at 100 mg/kg: 100 mpk; for inhibition in vivo at 25 mg/kg: 25 mpk. How it is done: The Chung model (spinal nerve ligation model) is a representative animal model to study neuropathic pain and is widely accepted as a gold standard for an animal pain model by global pharmaceutical companies around the world.
In this experiment, male Sprague-Dawley rats (100-120 g) purchased from Koatech (Pyeongtaek-si, Gyeonggi-do) were used. Rats were kept in a room maintained at constant temperature and humidity with a 12 hour light-dark cycle. Rats were allowed to eat and drink freely during the experiment.
For the Chung surgery, rats were anesthetized by isoflurane inhalation and the left lumbar nerves L5 and L6 were tightly tied with a suture thread (6-0 silk thread) at the end of the dorsal ganglion and at a front of an entrance to the sciatic nerve according to the article (Kim and Chung (1992), Pain 50(3):355-63). After suturing the incision, the rats were recovered for 2 weeks in the controlled maintenance room to induce physical allodynia in the left hind paw of the rat. To measure physical (tactile) allodynia, the rats were placed in a cage with a wire mesh on the bottom. Stimuli of increasing intensity (using the von Frey filaments in a range of 0.41 to 15.8 g) were placed on the plantar surface on the side of the nerve injury. The stimulus intensity at which the pain response (abrupt lifting, licking or sucking of the foot) was induced was recorded while applying gradual increment of stimuli. As described in the study of Chaplan et al. (1994) (Chaplan et al. (1994) J. Neurosci. Methods 53(1):55-63), the paw withdrawal threshold (PWT) was determined by increasing or decreasing continuous stimulus intensity, and the result was analyzed by applying Dixon's up-down method. Only rats showing no behavior dysfunction (e.g., feet dragging or dropping) were selected and included in the study, and the PWT of the rats used was 3.16 g or less.
After measuring the degree of basic reaction before drug injection, each compound and solvent were injected by oral administration (12.5-100 mg/kg), and the measurement was repeated at regular time intervals (60 and 120 minutes) after the drug was injected.
The experimenter conducted the PWT measurement in a blind condition not knowing which rat was administered with which drug. The control group was administered with gabapentin (65 mg/kg, intraperitoneal administration), and was randomly mixed during the measurement. Statistical analysis was performed on the measured pain response threshold by calculating the reversal rate (% reversal) from pain in Equation 1 below. […] Pain reversal rate (% reversal)=[(PWT after drug administration)−(PWT before drug administration)]*100/[(15 g, Estimated PWT in normal animals)−(PWT before drug administration)] [Equation 1]
The PWT used in this time is a value obtained by multiplying the gram, the unit of “force” measure, by 10,000, and taking the logarithm, which is a method generally used in academia.
Each experiment consisted of the compound group, the solvent group of the compound and the gabapentin (GBP) group as positive control group. As solvent of the compound, 0.5% HPMC (hydroxypropylmethyl cellulose) was used.

Where [2] appears, read: rat, oral, 50 mpk, 1 h, read-out: % reversal (1 h).
Where [3] appears, read: rat, oral, 50 mpk, 2 h, read-out: % reversal (2 h).
[4] abbreviates: rat, oral, 1 h, read-out: % reversal (1 h).
[5] abbreviates: rat, oral, 2 h, read-out: % reversal (2 h).
Where [6] appears, read: Rattus norvegicus, po, 1 h, read-out: % reversal (1 h).
[7] abbreviates: Rattus norvegicus, po, 2 h, read-out: % reversal (2 h).

Where two headings read alike, the source gives them in different places. Where only a bound is given, the exact number is not on record here.

T1 sequence (P28223 whole entry): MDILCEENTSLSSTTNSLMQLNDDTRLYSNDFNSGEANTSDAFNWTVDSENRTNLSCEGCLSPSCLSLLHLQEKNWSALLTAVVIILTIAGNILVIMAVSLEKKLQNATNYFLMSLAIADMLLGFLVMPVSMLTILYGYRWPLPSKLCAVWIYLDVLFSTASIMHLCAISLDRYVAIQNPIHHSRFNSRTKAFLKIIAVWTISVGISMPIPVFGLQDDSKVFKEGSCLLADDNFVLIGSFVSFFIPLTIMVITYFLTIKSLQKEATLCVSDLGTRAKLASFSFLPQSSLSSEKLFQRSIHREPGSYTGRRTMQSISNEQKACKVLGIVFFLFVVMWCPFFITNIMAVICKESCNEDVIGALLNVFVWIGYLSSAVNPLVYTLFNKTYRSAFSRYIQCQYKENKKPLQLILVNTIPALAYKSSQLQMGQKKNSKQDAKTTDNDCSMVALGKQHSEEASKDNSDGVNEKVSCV
T2 sequence (P41594 21-1212): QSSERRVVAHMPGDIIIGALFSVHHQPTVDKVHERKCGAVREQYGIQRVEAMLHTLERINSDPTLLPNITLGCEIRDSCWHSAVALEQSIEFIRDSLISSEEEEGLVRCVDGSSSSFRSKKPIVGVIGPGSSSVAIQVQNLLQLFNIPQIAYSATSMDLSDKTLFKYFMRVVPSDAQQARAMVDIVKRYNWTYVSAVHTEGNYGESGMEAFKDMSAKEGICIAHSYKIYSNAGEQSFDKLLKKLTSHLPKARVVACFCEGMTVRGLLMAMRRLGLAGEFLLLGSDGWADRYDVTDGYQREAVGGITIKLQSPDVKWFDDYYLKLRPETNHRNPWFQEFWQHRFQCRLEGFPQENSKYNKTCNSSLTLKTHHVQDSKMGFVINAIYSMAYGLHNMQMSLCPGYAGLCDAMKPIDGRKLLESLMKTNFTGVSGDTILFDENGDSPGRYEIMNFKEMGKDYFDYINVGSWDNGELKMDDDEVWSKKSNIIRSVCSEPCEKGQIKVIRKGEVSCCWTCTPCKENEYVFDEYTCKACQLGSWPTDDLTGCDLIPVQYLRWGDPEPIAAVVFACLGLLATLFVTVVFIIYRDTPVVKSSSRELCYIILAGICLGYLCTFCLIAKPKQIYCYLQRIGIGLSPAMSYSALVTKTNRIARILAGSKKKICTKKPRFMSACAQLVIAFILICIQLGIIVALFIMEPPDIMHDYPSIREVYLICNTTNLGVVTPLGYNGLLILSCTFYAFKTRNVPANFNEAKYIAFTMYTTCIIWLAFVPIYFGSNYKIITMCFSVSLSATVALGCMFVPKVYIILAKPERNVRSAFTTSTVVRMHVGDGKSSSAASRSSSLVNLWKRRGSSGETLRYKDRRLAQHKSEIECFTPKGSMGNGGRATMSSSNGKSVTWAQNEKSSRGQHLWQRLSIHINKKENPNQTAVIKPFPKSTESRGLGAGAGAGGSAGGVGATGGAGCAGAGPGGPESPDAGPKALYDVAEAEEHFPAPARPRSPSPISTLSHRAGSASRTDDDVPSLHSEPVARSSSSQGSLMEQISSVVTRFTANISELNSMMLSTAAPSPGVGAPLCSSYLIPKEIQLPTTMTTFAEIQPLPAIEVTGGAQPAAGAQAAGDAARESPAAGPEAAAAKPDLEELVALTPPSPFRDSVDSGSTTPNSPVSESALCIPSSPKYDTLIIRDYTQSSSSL

As for `O=C(NCC1CCOC1)c1ccc(C#Cc2ccccc2F)cc1` (centres unmarked) [Example 43, 4-((2-fluorophenyl)ethynyl)-N-((tetrahydrofuran-3-yl)methyl)benzamide], the IC50 is 100 to 500 nM at human 5-HT2AR and < 100 nM against mGluR5. Besides, the inhibition in vivo at 50 mg/kg in test [1] (setting [2]) was 72.9%; in test [1] (setting [3]), 90.8%.

For `O=C(NCC1CCOCC1)c1ccc(C#Cc2ccc(F)cc2F)cc1` [Example 44, 4-((2,4-difluorophenyl)ethynyl)-N-((tetrahydro-2H-pyran-4-yl)methyl)benzamide], the IC50 was < 100 nM at human 5-HT2AR and 500 to 1000 nM at mGluR5. Further, the inhibition in vivo at 50 mg/kg in test [1] (setting [2]) was 3.45%; in test [1] (setting [3]), 9.13%.

Regarding `O=C(NC[C@H]1CCCO1)c1ccc(C#Cc2ccccc2F)cc1` [Example 45, (R)-4-((2-fluorophenyl)ethynyl)-N-((tetrahydrofuran-2-yl)methyl)benzamide], the IC50 against human 5-HT2AR is 100 to 500 nM; against mGluR5, < 100 nM. The inhibition in vivo at 50 mg/kg in test [1] (setting [2]) came out at 77.7%; in test [1] (setting [3]) it was 50.6%.

As for `O=C(NC[C@@H]1CCCO1)c1ccc(C#Cc2ccccc2F)cc1` [Example 46, (S)-4-((2-fluorophenyl)ethynyl)-N-((tetrahydrofuran-2-yl)methyl)benzamide], the IC50 against human 5-HT2AR and at mGluR5 was 100 to 500 nM throughout. Further, the inhibition in vivo at 100 mg/kg in test [1] (setting [4]) worked out at 73%; in test [1] (setting [5]) it was 99.8%.

Take `O=C(NCC1CCOCC1)c1ccc(C#Cc2ccccc2)cc1` [Example 49, 4-(phenylethynyl)-N-((tetrahydro-2H-pyran-4-yl)methyl)benzamide]: the IC50 is 100 to 500 nM against human 5-HT2AR and < 100 nM against mGluR5. In addition, the results for the inhibition in vivo at 25 mg/kg in test [1] (setting [4]) and in test [1] (setting [5]) were 28.5% and 22%, respectively.

Turning to `O=C(NCC1COCCO1)c1ccc(C#Cc2ccccc2F)cc1` (centres unmarked) [Example 51, N-((1,4-dioxan-2-yl)methyl)-4-((2-fluorophenyl)ethynyl)benzamide], the results for the IC50 against human 5-HT2AR and at mGluR5 were 100 to 500 nM and < 100 nM, respectively. Besides, the inhibition in vivo at 50 mg/kg in test [1] (setting [2]) worked out at 5.97%; in test [1] (setting [3]), 14.5%.

`CC1(CNC(=O)c2ccc(C#Cc3ccccc3F)cc2)COC1` [Example 52, 4-((2-fluorophenyl)ethynyl)-N-((3-methyloxetan-3-yl)methyl)benzamide]: the IC50 at human 5-HT2AR is 100 to 500 nM; against mGluR5, < 100 nM. For the same compound, the inhibition in vivo at 100 mg/kg in test [1] (setting [4]) was found to be 90.8%; in test [1] (setting [5]), 101%.

Consider `CC(C)NC1(CNC(=O)c2ccc(C#Cc3ccccc3)cc2)CCCCC1` [Example 55, N-((1-(isopropylamino)cyclohexyl)methyl)-4-(phenylethynyl)benzamide], for which the IC50 is < 100 nM on human 5-HT2AR and 1000 to 2000 nM at mGluR5. Also, the inhibition in vivo at 100 mg/kg in test [1] (setting [4]) was determined as 68.9%; in test [1] (setting [5]) it was 80.2%.

For `O=C(NCC1CC(F)(F)C1)c1ccc(C#Cc2ccccc2F)cc1` [Example 56, N-((3,3-difluorocyclobutyl)methyl)-4-((2-fluorophenyl)ethynyl)benzamide], the IC50 was 100 to 500 nM at human 5-HT2AR and < 100 nM at mGluR5. The values for the inhibition in vivo at 50 mg/kg in test [1] (setting [6]) and in test [1] (setting [7]) were 47.4% and 43.6%, respectively.

In the case of `O=C(NCC1CCO1)c1ccc(C#Cc2ccccc2F)cc1` (centres unmarked) [Example 58, 4-((2-fluorophenyl)ethynyl)-N-(oxetan-2-ylmethyl)benzamide], the half-inhibitory concentration (IC50) against human 5-HT2AR and against mGluR5 was 100 to 500 nM in each case. Moreover, the values for the inhibition in vivo at 25 mg/kg in test [1] (setting [4]) and in test [1] (setting [5]) were 61.5% and 28.3%, respectively.

Consider `O=C(NCC1CCCCC1O)c1ccc(C#Cc2ccccc2F)cc1` (centres unmarked) [Example 63, 4-((2-fluorophenyl)ethynyl)-N-((2-hydroxycyclohexyl)methyl)benzamide], for which the values for the IC50 against human 5-HT2AR and against mGluR5 were 100 to 500 nM and < 100 nM, respectively. Moreover, the inhibition in vivo at 50 mg/kg in test [1] (setting [2]) amounted to 70.9%; in test [1] (setting [3]), 42.1%.

With `O=C(NCC1CCCC(O)C1)c1ccc(C#Cc2ccccc2F)cc1` (centres unmarked) [Example 64, 4-((2-fluorophenyl)ethynyl)-N-((3-hydroxycyclohexyl)methyl)benzamide], the IC50 at human 5-HT2AR was 500 to 1000 nM; on mGluR5, < 100 nM. Besides, the inhibition in vivo at 50 mg/kg is 10.4% in test [1] (setting [2]) and 45.2% in test [1] (setting [3]).

Consider `COC1(CNC(=O)c2ccc(C#Cc3ccccc3F)cc2)CCCCC1` [Example 65, 4-((2-fluorophenyl)ethynyl)-N-((1-methoxycyclohexyl)methyl)benzamide], for which the IC50 on human 5-HT2AR was 500 to 1000 nM; against mGluR5, < 100 nM. For the same compound, the inhibition in vivo at 50 mg/kg in test [1] (setting [6]) was 34%; in test [1] (setting [7]) it was 80.8%.

In the case of `COC1(CNC(=O)c2ccc(C#Cc3ccccc3F)cc2)CCOCC1` [Example 66, 4-((2-fluorophenyl)ethynyl)-N-((4-methoxytetrahydro-2H-pyran-4-yl)methyl)benzamide], the IC50 against human 5-HT2AR was 500 to 1000 nM; on mGluR5, < 100 nM. In addition, the inhibition in vivo at 25 mg/kg was determined as 64.1% in test [1] (setting [4]) and 43.2% in test [1] (setting [5]).

Consider `O=C(NC[C@H]1CCOC1)c1ccc(C#Cc2ccccc2F)cc1` [Example 69, (R)-4-((2-fluorophenyl)ethynyl)-N-((tetrahydrofuran-3-yl)methyl)benzamide], for which the values for the IC50 at human 5-HT2AR and against mGluR5 were 500 to 1000 nM and 100 to 500 nM, respectively. Besides, the inhibition in vivo at 50 mg/kg in test [1] (setting [6]) and in test [1] (setting [7]) was 110% throughout.

For the compound `CCC1(CNC(=O)c2ccc(C#Cc3ccccc3F)cc2)COC1` [Example 72, N-((3-ethyloxetan-3-yl)methyl)-4-((2-fluorophenyl)ethynyl)benzamide], the IC50 against human 5-HT2AR was 100 to 500 nM; at mGluR5, < 100 nM. Besides, the inhibition in vivo at 50 mg/kg in test [1] (setting [2]) was found to be 41.9%; in test [1] (setting [3]), 71.8%.

As for `O=C(NCC1(O)COC1)c1ccc(C#Cc2ccccc2F)cc1` [Example 82, 4-((2-fluorophenyl)ethynyl)-N-((3-hydroxyoxetan-3-yl)methyl)benzamide], the IC50 on human 5-HT2AR and against mGluR5 was 500 to 1000 nM each time. Also, the inhibition in vivo at 50 mg/kg in test [1] (setting [2]) turned out to be 70.3%; in test [1] (setting [3]), 89.1%.

As to `CC1(CNC(=O)c2ccc(C#Cc3ccc(F)cc3)cc2)COC1` [Example 83, 4-((4-fluorophenyl)ethynyl)-N-((3-methyloxetan-3-yl)methyl)benzamide], the values for the IC50 at human 5-HT2AR and on mGluR5 were 100 to 500 nM and < 100 nM, respectively. Besides, the inhibition in vivo at 25 mg/kg in test [1] (setting [4]) turned out to be 55%; in test [1] (setting [5]), 67.8%.

As for `C[C@]1(O)C[C@@H](CNC(=O)c2ccc(C#Cc3ccccc3F)cc2)C1` [Example 87, 4-((2-fluorophenyl)ethynyl)-N-(((1s,3s)-3-hydroxy-3-methylcyclobutyl)methyl)benzamide], the IC50 against human 5-HT2AR was 100 to 500 nM; against mGluR5, < 100 nM. Further, the figures for the inhibition in vivo at 50 mg/kg in test [1] (setting [2]) and in test [1] (setting [3]) were 93.7% and 104%, respectively.

With `O=C(NCC1CCC(F)(F)CC1)c1ccc(C#Cc2ccncc2)cc1` [Example 88, N-((4,4-difluorocyclohexyl)methyl)-4-(pyridin-4-ylethynyl)benzamide], the 50% inhibitory concentration (IC50) against human 5-HT2AR was 500 to 1000 nM; against mGluR5, < 100 nM. Also, the inhibition in vivo at 50 mg/kg in test [1] (setting [2]) stood at 97.8%; in test [1] (setting [3]) it was 110%.
